# Data as given in BindingDB's records for doi:10.7270/Q2N014XN (Srmlsc, 2007).
# Target: T1, Diphosphomevalonate decarboxylase (Streptococcus pneumoniae serotype 2 (strain D39 / NCTC 7466), UniProt A0A0H2ZN59)
# T1 sequence (A0A0H2ZN59 whole entry): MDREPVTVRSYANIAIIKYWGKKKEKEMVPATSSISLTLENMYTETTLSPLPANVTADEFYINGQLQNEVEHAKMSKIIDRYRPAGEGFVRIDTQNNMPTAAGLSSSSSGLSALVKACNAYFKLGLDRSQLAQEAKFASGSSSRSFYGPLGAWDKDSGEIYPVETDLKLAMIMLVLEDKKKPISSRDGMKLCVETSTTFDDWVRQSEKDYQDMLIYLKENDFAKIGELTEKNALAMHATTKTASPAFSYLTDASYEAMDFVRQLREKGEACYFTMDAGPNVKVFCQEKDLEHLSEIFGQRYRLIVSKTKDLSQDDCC
# Assay: diphosphomevalonate decarboxylase inhibition dose curves – biochemical, PK/LDH-coupled NADH fluorescence, hexokinase coupling counter-screen, dose response (AID 550)
# Settings: not given
row,SMILES,IC50 [µM]
1,CCOc1ccc(N(CC(=O)NC2CCCC(C)C2C)S(=O)(=O)c2c(C)noc2C)cc1 (centres undefined) [MLS000117395],> 10000
2,"CCc1cc(C(Cc2ccc3ccccc3n2)N=O)c(O)cc1O (centres undefined) [(6Z)-4-ethyl-3-hydroxy-6-[1-(hydroxyamino)-2-(2-quinolinyl)ethylidene]-1-cyclohexa-2,4-dienone]",> 10000
3,"Cc1ccc(OCCn2c(C)c(C=Nn3cnnc3)c3ccccc32)cc1 [1-[2-methyl-1-[2-(4-methylphenoxy)ethyl]-3-indolyl]-N-(1,2,4-triazol-4-yl)methanimine]",> 10000
4,CC(C)(O)P(C)(=O)c1ccccc1 (centres undefined) [2-[methyl(phenyl)phosphoryl]-2-propanol],> 10000
5,"COC(=O)c1c(C(=O)OC)c2ccncn2c1Cl [7-Chloro-pyrrolo[1,2-c]pyrimidine-5,6-dicarboxylic acid dimethyl ester]",26.8
6,"CC1(C)Cc2nc3sc4c(=O)[nH]cnc4c3cc2CS1 [8,8-dimethyl-7,10-dihydro-8H-thiopyrano[3'',4'':5',6']pyrido[3',2':4,5]thieno[3,2-d]pyrimidin-4(3H)-one]",108
7,Cc1ccc(-n2c(SCC(=O)NCc3ccco3)nnc2-c2cccnc2)c(C)c1 [MLS000058402],> 10000
8,"COc1ccc(-c2coc3cc(O)ccc3c2=O)cc1OC [3-(3,4-dimethoxyphenyl)-7-hydroxy-1-benzopyran-4-one]",19
9,"COc1ccc(-c2nn3c(-c4ccccn4)nnc3s2)cc1OC [6-(3,4-dimethoxyphenyl)-3-(2-pyridinyl)-[1,2,4]triazolo[3,4-b][1,3,4]thiadiazole]",89.8
10,Cn1/c(=N/C(=O)c2ccco2)sc2cccc(F)c21 [MLS000101506],> 10000
11,O=C(c1ccccc1F)N(Cc1ccccc1)C1CCS(=O)(=O)C1 (centres undefined) [MLS000039394],> 10000
12,"CSc1ncc(Cl)c(C(=O)Nc2nnc(SC)s2)n1 [5-chloranyl-2-methylsulfanyl-N-(5-methylsulfanyl-1,3,4-thiadiazol-2-yl)pyrimidine-4-carboxamide]",> 10000
13,Cc1nc(-c2cnn(-c3ccccc3)c2)c2cc(C)oc2n1 [SMR000046165],> 10000
14,Cc1cccc(C(=O)Nc2cc(=O)n(C)c(=O)n2C)c1 [MLS000103605],> 10000
15,COc1ccccc1-c1nc(C(N)=O)c2[nH]c(=O)n(-c3cccc(C)c3)c2n1 [MLS000094139],21.6
16,"COC(=O)c1sc2nc(-c3ccco3)ccc2c1N [3-amino-6-(2-furanyl)-2-thieno[2,3-b]pyridinecarboxylic acid methyl ester]",28.7
17,CCCC(=O)Nc1ccc(N2CCN(C(=O)CCC)CC2)cc1 [MLS000034431],> 10000
18,CCn1cc(C(=O)NCc2ccco2)c(=O)c2cc(F)c(N3CCN(C(=O)c4ccco4)CC3)cc21 [1-ethyl-6-fluoranyl-7-[4-(furan-2-ylcarbonyl)piperazin-1-yl]-N-(furan-2-ylmethyl)-4-oxidanylidene-quinoline-3-carboxamide],16.7
19,O=C(Nc1ccc(N2CCCCC2)cc1)c1cccnc1 [MLS000074324],> 10000
20,"Clc1c(-c2nnc3n2CCC3)sc2ccccc12 [3-(3-chloranyl-1-benzothiophen-2-yl)-6,7-dihydro-5H-pyrrolo[2,1-c][1,2,4]triazole]",> 10000
21,CC1=C(C(=O)OCC2CCCO2)C(c2ccncc2)C2C(=O)CCCC2=N1 (centres undefined),26.9
22,COC(=O)Cc1sc(=O)[nH]c1Nc1ccccc1 [MLS000111966],> 10000

row,SMILES,IC50 [µM]
1,COc1ccc(C(c2nnnn2CC2CCCO2)N2CCN(c3ccccc3)CC2)cc1 (centres undefined) [1-[(4-methoxyphenyl)-[1-(2-oxolanylmethyl)-5-tetrazolyl]methyl]-4-phenylpiperazine],> 10000
2,"COc1ccccc1NC(=O)C1=C(C)N=C2CCCC(=O)C2C1c1ccc2c(c1)OCO2 (centres undefined) [4-(1,3-benzodioxol-5-yl)-N-(2-methoxyphenyl)-2-methyl-5-oxo-4,6,7,8-tetrahydro-1H-quinoline-3-carboxamide]",76.3
3,COc1cc(CNc2ccc(N3CCOCC3)c(C(=O)O)c2)ccc1OCC(N)=O [5-[[4-(2-amino-2-keto-ethoxy)-3-methoxy-benzyl]amino]-2-morpholino-benzoic acid],65.5
4,"Cc1ccc2cc3cc(C(=O)N4CCCCCC4)oc3nc2c1 [1-azepanyl-(7-methyl-2-furo[2,3-b]quinolinyl)methanone]",58.1
5,"Cc1cc(-c2ccccc2)nc2cc(C(N)=O)nn12 [7-methyl-5-phenyl-2-pyrazolo[1,5-a]pyrimidinecarboxamide]",> 10000
6,Cc1cccc(C)c1NC(=O)C(c1ccccc1)N1CCN(C(=O)c2ccco2)CC1 (centres undefined) [MLS000086418],> 10000
7,"O=C(NC1CCCCC1)N(CCN1CCCC1)Cc1cc2cc3c(cc2[nH]c1=O)OCCO3 [3-cyclohexyl-1-[(7-oxo-3,6-dihydro-2H-[1,4]dioxino[2,3-g]quinolin-8-yl)methyl]-1-[2-(1-pyrrolidinyl)ethyl]urea]",15
8,"Cc1cccc2cc(CN(Cc3ccco3)S(=O)(=O)c3ccc4c(c3)OCCO4)c(=O)[nH]c12 [N-(furan-2-ylmethyl)-N-[(8-methyl-2-oxidanylidene-1H-quinolin-3-yl)methyl]-2,3-dihydro-1,4-benzodioxine-6-sulfonamide]",> 10000
9,CCOC(=O)Cc1csc(-n2sc3ccccc3c2=O)n1 [MLS000082162],7.58
10,NC(=O)c1ccsc1NC(=O)c1nc(-c2ccccc2)n(-c2ccccc2)n1 [MLS000054020],55.9
11,"Cc1ccc(C)c(-c2nc3cc(N)ccc3o2)c1 [2-(2,5-Dimethyl-phenyl)-benzooxazol-5-ylamine]",6.06
12,"O=C1CC(c2cccnc2)c2cc3c(cc2N1)OCO3 (centres undefined) [8-(3-pyridinyl)-7,8-dihydro-5H-[1,3]dioxolo[4,5-g]quinolin-6-one]",> 10000
13,"Nc1nc(N)c2sc3nc4c(cc3c2n1)CCC4 [2,3-Dihydro-1H-9-thia-5,7,10-triaza-cyclopenta[b]fluorene-6,8-diamine]",> 10000
14,"COCCN(Cc1cc2cc3c(cc2[nH]c1=O)OCO3)C(=O)c1cccs1 [N-(2-methoxyethyl)-N-[(6-oxidanylidene-5H-[1,3]dioxolo[4,5-g]quinolin-7-yl)methyl]thiophene-2-carboxamide]",37.6
15,COC(=O)c1cc(NCc2c(F)cccc2Cl)ccc1N1CCOCC1 [5-[(2-chloro-6-fluoro-benzyl)amino]-2-morpholino-benzoic acid methyl ester],80.4
16,"Cc1cc(C)c2c(n1)nn1c(N3CCN(c4ccccc4)CC3)cc(C)nc21 [2,8,10-trimethyl-4-(4-phenyl-1-piperazinyl)pyrido[2,3]pyrazolo[2,4-a]pyrimidine]",12.7
17,Cc1ccc2cc3c(NC(=O)c4ccco4)nn(C)c3nc2c1 [MLS000041273],45.7
18,C=CCNc1nc(N2CCCC2)nc2ccccc12 [MLS000066749],66.6
19,O=C(O)c1c(-c2ccccc2)c2oc3ccccc3c2[nH]c1=O,17
20,"CCOc1nc(-c2ccccc2)ccc1-c1noc(-c2ccc(OC)c(OC)c2)n1 [3-[5-(3,4-Dimethoxy-phenyl)-[1,2,4]oxadiazol-3-yl]-2-ethoxy-6-phenyl-pyridine]",> 10000
21,CCN(CC)CCCN(Cc1cc2cc3c(cc2nc1O)OCCO3)C(=O)Nc1ccccc1 [SMR000004152],> 10000

# Same assay, conditions: inactive by the depositor's call
row,SMILES,IC50 [µM]
1,"CCC(=O)Oc1ccc2c(C)cc(=O)oc2c1C [(4,8-dimethyl-2-oxidanylidene-chromen-7-yl) propanoate]",29.9
